Laboratory results: PubChem BioAssay (NCI)
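Values below derive from 48-hour exposures of cells grown in 96-well plates, with endpoints linearly interpolated between the two concentrations bracketing the appropriate inhibition level. Abbreviation: GI50, concentration required for 50% inhibition of growth. The concentration for full growth arrest is given as TGI.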

Key:
Experiment in all cases: NCI-60 cell line screen, 48 h
NCI-H226 lung = test system: NCI-H226 lung
NCI-H23 lung = test system: NCI-H23 lung
NCI-H460 lung = test system: NCI-H460 lung
NCI-H522 lung = test system: NCI-H522 lung
NCI/ADR-RES ovarian = test system: NCI/ADR-RES ovarian
OVCAR-3 ovarian = test system: OVCAR-3 ovarian
OVCAR-4 ovarian = test system: OVCAR-4 ovarian
OVCAR-5 ovarian = test system: OVCAR-5 ovarian
OVCAR-8 ovarian = test system: OVCAR-8 ovarian
PC-3 prostate = test system: PC-3 prostate
RPMI-8226 leukemia = test system: RPMI-8226 leukemia
RXF 393 renal = test system: RXF 393 renal
SF-268 CNS = test system: SF-268 CNS
SF-295 CNS = test system: SF-295 CNS
SF-539 CNS = test system: SF-539 CNS
SK-MEL-2 melanoma = test system: SK-MEL-2 melanoma
SK-MEL-28 melanoma = test system: SK-MEL-28 melanoma
SK-MEL-5 melanoma = test system: SK-MEL-5 melanoma
SK-OV-3 ovarian = test system: SK-OV-3 ovarian
SN12C renal = test system: SN12C renal
SNB-19 CNS = test system: SNB-19 CNS
SNB-75 CNS = test system: SNB-75 CNS
SR leukemia = test system: SR leukemia
SW-620 colon = test system: SW-620 colon
T-47D breast = test system: T-47D breast
TK-10 renal = test system: TK-10 renal
U251 CNS = test system: U251 CNS
UACC-257 melanoma = test system: UACC-257 melanoma
UO-31 renal = test system: UO-31 renal

## Cc1cc(NCCCCNc2ccnc3cc(Cl)ccc23)nc(Nc2ccc(C(=O)N3CCCC3)cc2)n1
NCI-H226 lung
  TGI: 18.2 µM
NCI-H23 lung
  GI50: 3.7 µM
  TGI: 15.8 µM
NCI-H460 lung
  GI50: 1.96 µM
  TGI: 4.98 µM
NCI-H522 lung
  GI50: 2.16 µM
  TGI: 4.87 µM
NCI/ADR-RES ovarian
  GI50: 16.4 µM
  TGI: 72.8 µM
OVCAR-3 ovarian
  GI50: 1.78 µM
  TGI: 3.81 µM
OVCAR-4 ovarian
  GI50: 2.32 µM
  TGI: 11 µM
OVCAR-5 ovarian
  GI50: 4.29 µM
  TGI: 18 µM
OVCAR-8 ovarian
  GI50: 3.14 µM
  TGI: 11.2 µM
PC-3 prostate
  GI50: 3.79 µM
  TGI: 10.9 µM
RPMI-8226 leukemia
  GI50: 1.34 µM
  TGI: 5.3 µM
RXF 393 renal
  GI50: 1.47 µM
  TGI: 3.08 µM
SF-268 CNS
  GI50: 2.1 µM
  TGI: 6.21 µM
SF-295 CNS
  GI50: 1.78 µM
  TGI: 3.64 µM
SF-539 CNS
  GI50: 1.74 µM
  TGI: 3.54 µM
SK-MEL-2 melanoma
  GI50: 2.18 µM
  TGI: 4.27 µM
SK-MEL-28 melanoma
  GI50: 2 µM
  TGI: 4.12 µM
SK-MEL-5 melanoma
  GI50: 1.7 µM
  TGI: 3.13 µM
SK-OV-3 ovarian
  GI50: 3.49 µM
  TGI: 9.11 µM
SN12C renal
  GI50: 2.85 µM
  TGI: 11.4 µM
SNB-19 CNS
  GI50: 4.5 µM
  TGI: 18.1 µM
SNB-75 CNS
  GI50: 1.91 µM
  TGI: 3.76 µM
SR leukemia
  GI50: 0.267 µM
  TGI: 1.37 µM
SW-620 colon
  GI50: 1.7 µM
  TGI: 3.5 µM
T-47D breast
  GI50: 2.64 µM
  TGI: 6.76 µM
TK-10 renal
  GI50: 1.84 µM
  TGI: 4.25 µM
U251 CNS
  GI50: 2.08 µM
  TGI: 4.8 µM
UACC-257 melanoma
  GI50: 2.09 µM
  TGI: 4.19 µM
UO-31 renal
  GI50: 1.73 µM
  TGI: 4.16 µM
